Reference: patent publication US12084521B2, “TLR9 inhibitors to suppress inflammatory response to pathogens” (University Of Maryland, Baltimore, priority 2018, dated 2024)

System: TLR9 signaling
Assay: ODN 1668-induced cytokine secretion in BMDM supernatants (ELISA)
Type: cell-based, mouse
Settings: 5 hour supernatants, ODN 1668 1 μM
Experimental: Mouse TNFα and IL-12-p40 concentrations were measured in supernatants using ELISA kits from Biolegend™, Inc.
BMDMs were incubated in the presence of a decoy peptide for 30 minutes prior to stimulation with ODN 1668 (1 μM). The statistical significance of changes in cytokine levels was determined by the one-way ANOVA test; *p<0.01.

RSFWAQLGMALTRD (Synthetic peptide 9R11)
secretion of IL-12-p40 (peptide 20 μM): also effective | production/secretion of TNFα (peptide 40 μM): decreased the production of TNFα | secretion of IL-12-p40 (peptide 40 μM): reduced secretion
